In US20050158775A1, “Novel plamid DNA comprising reoprter gene DNA and use of the same” (priority 1997, published 2005):

Legend:
[1] = target: T1, Gal4-human PPAR δ chimeric receptor protein (Homo sapiens, UniProt Q03181); type: cell-based
T1 construct: the 139th serine (Ser) to the 441st tyrosine (Tyr) of the human PPAR δ receptor; expressed in transfected cells
T1 sequence (Q03181 139-441): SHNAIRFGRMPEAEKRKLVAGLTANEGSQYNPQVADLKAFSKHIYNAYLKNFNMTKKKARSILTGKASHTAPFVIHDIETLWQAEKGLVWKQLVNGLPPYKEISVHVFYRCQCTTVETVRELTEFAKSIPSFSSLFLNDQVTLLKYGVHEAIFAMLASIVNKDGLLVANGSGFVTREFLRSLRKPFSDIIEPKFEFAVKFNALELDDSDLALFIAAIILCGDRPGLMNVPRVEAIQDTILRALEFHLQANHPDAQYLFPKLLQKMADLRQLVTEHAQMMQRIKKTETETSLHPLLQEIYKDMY

[2] = target: T2, Gal4-human PPAR α chimeric receptor protein (Homo sapiens, UniProt Q07869); type: cell-based
T2 construct: the 167th serine (Ser) to the 468th tyrosine (Tyr) of the human PPAR α receptor; expressed in transfected cells
T2 sequence (Q07869 167-468): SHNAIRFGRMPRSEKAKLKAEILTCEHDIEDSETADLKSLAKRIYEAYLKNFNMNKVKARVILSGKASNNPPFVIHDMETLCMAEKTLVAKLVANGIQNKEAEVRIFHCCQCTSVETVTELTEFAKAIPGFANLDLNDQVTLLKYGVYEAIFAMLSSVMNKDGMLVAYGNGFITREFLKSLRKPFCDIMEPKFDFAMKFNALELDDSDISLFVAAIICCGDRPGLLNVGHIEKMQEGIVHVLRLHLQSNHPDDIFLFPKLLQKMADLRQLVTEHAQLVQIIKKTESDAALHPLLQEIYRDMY

[3] = target: T3, Gal4-human PPAR γ chimeric receptor protein (Homo sapiens, UniProt P37231)
T3 sequence (P37231 176-477 isoform P37231-2): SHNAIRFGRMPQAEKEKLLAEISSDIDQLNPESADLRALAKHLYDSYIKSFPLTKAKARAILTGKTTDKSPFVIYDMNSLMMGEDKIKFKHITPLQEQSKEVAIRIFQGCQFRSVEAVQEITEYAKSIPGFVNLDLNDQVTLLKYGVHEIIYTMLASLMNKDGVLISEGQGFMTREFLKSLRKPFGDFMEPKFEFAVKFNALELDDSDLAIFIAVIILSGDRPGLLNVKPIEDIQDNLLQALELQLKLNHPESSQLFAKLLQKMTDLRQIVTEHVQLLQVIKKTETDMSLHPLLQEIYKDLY

## CCCCCC#CCC#CCC#CCC#CCCCC(=O)O [ETYA]
[1]
  cell death of PPAR δ ligand-responsive cells: do not cause cell death
[2]
  cell death of PPAR α ligand-responsive cells: cause dose-dependent cell death

## Cc1cccc(Nc2cc(Cl)nc(SCC(=O)O)n2)c1C [Wy-14643]
[3]
  cell death of PPAR γ ligand-responsive cells: do not cause cell death
[2]
  cell death of PPAR α ligand-responsive cells: cause dose-dependent cell death
